Reference: patent publication US20230039858A1, “COMPOSITIONS AND METHODS RELATED TO MOLECULAR CONJUGATION” (IntoCell, Inc., priority 2019, published 2023)

What was measured:
[1] = Plasma stability in mouse plasma, HPLC; format: in vitro ADME; settings: 300 μM, 37° C., up to 7 days
Description: (§1) Compound N-Ac-Cys-AMA-10 and methyl phenyl sulfone (used as a standard material) were dissolved in DMSO to make a concentration of 30 mM. Then, each of human plasma (Biochemed 752PR—SC-PMG) and mouse plasma (Biochemed 029-APSC-MP) were mixed with the N-Ac-Cys-AMA-10 and MPS to make a final concentration of N-Ac-Cys-AMA-10 and methyl phenyl sulfone 300 μM. The resulting plasma mixtures were incubated in a water bath at 37° C. Aliquots were taken before the reaction and on 1 day, 2 days, 4 days, and 7 days after the reaction, wherein each aliquot was 200 μL. To complete the reaction, a two-fold volume of acetonitrile was added, followed by brief vortexing, and centrifugation for plasma protein precipitation. Each supernatant obtained after centrifugation was collected and analyzed by HPLC.

[2] = Plasma stability in human plasma, HPLC; format: in vitro ADME; settings: 300 μM, 37° C., up to 7 days
Description: as §1

[3] = Relative reaction rate with N-Ac-cysteine (LC/MS); format: physicochemical; settings: with N-acetyl-L-cysteine in PBS buffer/DMSO, 1 hour, room temperature; relative to Reference A = 1
Description: To a homogeneous solutions of ‘reference A’, PyrMPS-1, and mMPS-4 (10 stock solution 10 mmol) in PBS buffer (870 μL) and DMSO (90 μL) was added N-acetyl-L-cysteine (10 stock solution 10 mmol) and stirred for 1 hour at room temperature. The resulting samples were checked for reaction rate using LC/MS.

Row | Compound | stability in mouse plasma [1] | stability in human plasma [2] | Relative reaction rate [3]
1 | C#CCOCCOCCOCCNC(=O)c1cc(C(=O)CC(SC[C@H](NC(C)=O)C(=O)O)C(N)=O)cc(C(=O)NCCOCCOCCOCC#C)c1 (some centres unmarked) [N-Ac-Cys-AMA-10] | high stability | high stability | –
2 | Cc1ccc(S(=O)(=O)CCC(=O)c2ccc(C(=O)NCCOCCOCCOCCOCCOCCN=[N+]=[N-])cc2)cc1 [Reference A, reference compound] | – | – | 1 folds
3 | Cc1ccc(S(=O)(=O)CCC(=O)c2cncc(C(=O)NCCOCCOCCOCCOCCOCCN=[N+]=[N-])c2)cc1 [pyrMSP-1] | – | – | Increase 11.5 folds
4 | COC(=O)c1cc(C(=O)CCS(=O)(=O)c2ccc(C)cc2)cc(C(=O)NCCOCCOCCOCCOCCOCCN=[N+]=[N-])c1 [mMPS-4] | – | – | Increase 7 folds
